Here are results for three compounds from patent publication US7872046B2, “Crystalline form of a (3S)-aminomethyl-5-methyl-hexanoic acid prodrug and methods of use” (Xenoport, Inc., priority 2008, dated 2011).

For series [1] the following is noted: dosed either orally or directly into the colon of a mammal; cited from earlier work.
A short description of series [2]: Pregabalin pharmacokinetics following intracolonic administration in monkeys (Example 12). Type of series: in vivo, cynomologus monkeys. The conditions noted are these: 10 mg-eq PG/kg. Here is the method:
The pharmacokinetics of pregabalin and crystalline calcium (3S)-{[(1R)-isobutanoyloxyethoxy]carbonylaminomethyl}-5-methyl-hexanoate hydrate following intracolonic administration in monkeys was determined.
A group of four male cynomologus monkeys received an intracolonic dose of pregabalin or crystalline calcium (3S)-{[(1R)-isobutanoyloxyethoxy]carbonylaminomethyl}-5-methyl-hexanoate hydrate (10 mg-eq pregabalin/kg). A 7-day wash-out period was allowed between treatments. Blood samples (300 μL) were collected from all animals prior to dosing and at intervals up to 24 hours post-dosing and immediately quenched in tubes containing K2EDTA to prevent hydrolysis. Two aliquots (100 μL each) were immediately quenched with 300 μL methanol. All quenched blood samples were subsequently analyzed for (3S)-{[(1R)-isobutanoyloxyethoxy]carbonylaminomethyl}-5-methyl-hexanoate free acid and pregabalin using LC-MS/MS.
Pregabalin was obtained from Teva (Peteh Tiqva, Israel). Crystalline calcium (3S)-{[(1R)-isobutanoyloxyethoxy]carbonylaminomethyl}-5-methyl-hexanoate hydrate was synthesized from commercial pregabalin according to Examples 1-6.
Cynomologus monkeys (body weight approximately 2.5 kg to 5.0 kg) were used in the study. Monkeys were fasted overnight and for the first 4 hours after dose administration. Water was provided ad libitum. For intracolonic administration, pregabalin or crystalline calcium (3S)-{[(1R)-isobutanoyloxyethoxy]carbonylaminomethyl}-5-methyl-hexanoate hydrate was suspended in 0.5% methylcellulose/0.1% Tween 80 in sodium phosphate buffer at pH 7.4. Blood samples were analyzed and pharmacokinetic analysis performed as described in Example 14.
(§1) Blood concentration data for all analytes were analyzed by non-compartmental methods using WinNonlin (WinNonlin™ Software, version 5.2, Pharsight Corp. Mountain View, Calif.). Non-compartmental analysis was performed on individual profiles in each animal. All concentration values below the limit of quantitation (BLQ) were treated as 0 (zero) for the pharmacokinetic analysis. Low concentration values at predose were treated as BLQ. Nominal sample collection time points were used for the calculation of pharmacokinetic parameters. All concentration data were plotted using SigmaPlot (SigmaPlot™, Version 9.0, Systat Software Inc., Richmond, Calif.).
(§2) The maximum concentration (Cmax) and time to Cmax(Tmax) were obtained by observation. The apparent elimination half-life (T1/2) was obtained by linear regression of three or more log-transformed data points in the terminal phase. The area under the concentration versus time curve (AUClast) was obtained by the linear trapezoidal method using concentration data up to the last quantifiable concentration. The AUC value extrapolated to infinity (AUCinf) was calculated as: AUCinf=AUClast+Clast/λz where tlast is the time of the last quantifiable concentration (Clast) and λz is the rate constant of the apparent terminal elimination phase.
(§3) The bioavailability (F) of pregabalin after extravascular dosing of pregabalin or prodrug was calculated by comparison to data following intravenous administration of pregabalin as follows: F(%)=100×(AUCex/Doseex)/(AUCiv/Doseiv) where AUCex is the area under the pregabalin concentration versus time curve in μg×hr/mL following extravascular administration of pregabalin or crystalline calcium (3S)-{[(1R)-isobutanoyloxyethoxy]carbonylaminomethyl}-5-methyl-hexanoate hydrate formulation; Doseex is the extravascular dose expressed in mg-equivalents of pregabalin/kg body weight; AUCiv is the area under the pregabalin concentration versus time curve in μg×hr/mL following intravenous administration of pregabalin; and Doseiv is the intravenous dose expressed in mg-equivalents of pregabalin/kg body weight.

Series [3] in a line: Hygroscopicity of solid forms. Type of series: physicochemical. To be noted: solid material.
Series [4] is described as follows: Pregabalin pharmacokinetics following administration of oral tablet formulations in monkeys (Example 14). Type of series: in vivo, cynomolgus monkeys. Here is the method: One group of four male cynomolgus monkeys was used for the study. The mean body weight was approximately 2.9 kg at the start of the study and increased over the 9 months of the study to approximately 3.4 kg. The animals were fasted overnight and for the first 4 hours of the study after administration of each test formulation. Water was provided ad libitum.
All formulations were evaluated in a single group of four fasted male cynomolgus monkeys with at least 5 days washout between treatments. The IR tablet formulation was administered at 75 mg-eq pregabalin (1 tablet per animal). Three different SR tablet formulations were dosed orally at either 75 mg-eq. pregabalin or 69 mg-eq. pregabalin (1 tablet each per animal).
Blood samples were obtained from all animals at intervals up to 24 hours post-dosing. Approximately 0.3 mL of blood was collected in pre-chilled K2EDTA tubes containing 0.3 mL of methanol. Within 30 minutes, the blood samples were stored at or below −70° C.
Quenched blood samples were frozen and stored at −20° C. prior to analysis. Samples were analyzed by a sensitive and specific LC-MS/MS method for simultaneous determination of (3S)-{[(1R)-isobutanoyloxyethoxy]carbonylaminomethyl}-5-methyl-hexanoate free acid and pregabalin concentrations.
as §1, §2
as §3, with “weight. […]” for “weight.”

The mark [5] stands for this setting: IR tablet, 75 mg-eq PG (22.4 mg-eq PG/kg).
[6] abbreviates: SR1 tablet, 75 mg-eq PG (22.3 mg-eq PG/kg).
[7] abbreviates: SR2 tablet, 69 mg-eq PG (21.1 mg-eq PG/kg).
[8] abbreviates: SR tablet, 75 mg-eq PG (21.7 mg-eq PG/kg).

Take `CC(C)C[C@H](CNC(=O)OC(C)OC(=O)C(C)C)CC(=O)O` (stereo partly drawn) [(1), (3S)-{[1-Isobutanoyloxyethoxy]carbonylaminomethyl}-5-methyl-hexanoic acid]: the bioavailability as pregabalin result in series [1] is “high bioavailability”.

For “calcium (3S)-{[(1R)-isobutanoyloxyethoxy]carbonylaminomethyl}-5-methyl-hexanoate hydrate [(3a)]”, in series [2], the “AUCinf, pregabalin in blood, mean (SD)” value is 55.9 (12.1) μg × hr/mL; the “AUClast, pregabalin in blood, mean (SD)” value was 54.5 (11.3) μg × hr/mL; the “Cmax, pregabalin in blood, mean (SD)” value is 7.54 (1.89) μg/mL; the “T1/2, pregabalin in blood, mean (SD)” value was 4.17 (1.15) hr. Besides, in series [2], the “Tmax, pregabalin in blood, mean (SD)” value is reported as 0.88 (0.25) hr. Also, in series [3], the hygroscopicity entry is “hygroscopic”. Besides, in series [4] (setting [5]), the “AUClast, pregabalin in blood, mean (SD)” value is 163 (25) μg × hr/mL; the “Cmax, pregabalin in blood, mean (SD)” value was 19.3 (2.4) μg/mL; the “F, bioavailability (based on AUClast) relative to AUCinf of intravenous pregabalin at 8 mg/kg, mean (SD)” value was 82 (13) %; the “Tmax, pregabalin in blood, mean (SD)” value is listed as 2.0 (1.4) hr. In series [4] (setting [6]), the “AUClast, pregabalin in blood, mean (SD)” value was 104 (16) μg × hr/mL; the “Cmax, pregabalin in blood, mean (SD)” value was 7.2 (1.2) μg/mL; the “F, bioavailability (based on AUClast) relative to AUCinf of intravenous pregabalin at 8 mg/kg, mean (SD)” value is reported as 52 (6) %; the “Tmax, pregabalin in blood, mean (SD)” value is reported as 8.0 (6.9) hr. In series [4] (setting [7]), the “AUClast, pregabalin in blood, mean (SD)” value is reported as 70 (1) μg × hr/mL; the “Cmax, pregabalin in blood, mean (SD)” value is given as 5.0 (0.3) μg/mL; the “F, bioavailability (based on AUClast) relative to AUCinf of intravenous pregabalin at 8 mg/kg, mean (SD)” value was 35 (9) %; the “Tmax, pregabalin in blood, mean (SD)” value is given as 14.0 (3.5) hr. Besides, in series [4] (setting [8]), the “AUClast, pregabalin in blood, mean (SD)” value is listed as 137 (40) μg × hr/mL; the “Cmax, pregabalin in blood, mean (SD)” value is listed as 13.5 (3.2) μg/mL; the “F, bioavailability (based on AUClast) relative to AUCinf of intravenous pregabalin at 8 mg/kg, mean (SD)” value is given as 70 (16) %; the “Tmax, pregabalin in blood, mean (SD)” value is listed as 3.2 (1.5) hr.

For `CC(C)C[C@H](CN)CC(=O)O` [Pregabalin, (3S)-aminomethyl-5-methyl-hexanoic acid], the AUC(0-inf) in series [2] (male, monkey, whole blood, 10 mg/kg, read-out: AUCinf, pregabalin in blood, mean (SD)) was found to be 3100 ng·h/mL. Moreover, the AUC(0-t) came out at 2200 ng·h/mL in series [2] (male, monkey, whole blood, 10 mg/kg, read-out: AUClast, pregabalin in blood, mean (SD)) and 188000 ng·h/mL in series [4] (male, cynomolgus monkey, whole blood, LYRICA capsules, 150 mg-eq PG (52.4 mg-eq PG/kg), read-out: AUClast, pregabalin in blood, mean (SD)). Further, the Cmax in series [2] (male, monkey, whole blood, 10 mg/kg, read-out: Cmax, pregabalin in blood, mean (SD)) was 240 ng/mL; in series [4] (male, cynomolgus monkey, whole blood, LYRICA capsules, 150 mg-eq PG (52.4 mg-eq PG/kg), read-out: Cmax, pregabalin in blood, mean (SD)) it was 21900 ng/mL. The half-life in series [2] (male, monkey, whole blood, 10 mg/kg, read-out: T1/2, pregabalin in blood, mean (SD) (converted)) is 6.15 h. Also, the Tmax in series [2] (male, monkey, whole blood, 10 mg/kg, read-out: Tmax, pregabalin in blood, mean (SD)) was 0.5 h; in series [4] (male, cynomolgus monkey, whole blood, LYRICA capsules, 150 mg-eq PG (52.4 mg-eq PG/kg), read-out: Tmax, pregabalin in blood, mean (SD)), 3 h. The bioavailability in series [2] (male, monkey, whole blood, other: intracolonic, 8 mg/kg, read-out: F, bioavailability of pregabalin relative to IV pregabalin at 8 mg/kg, mean (SD)) came out at 2.7%. For the same compound, the “F, bioavailability (based on AUClast) relative to AUCinf of intravenous pregabalin at 8 mg/kg, mean (SD)” value in series [4] (LYRICA capsules, 150 mg-eq PG (52.4 mg-eq PG/kg)) is recorded as 41 (9) %.
